Measurements reported in US9023789B2, “Amylin analogs and pharmaceutical compositions thereof” (Novo Nordisk A/S, priority 2012, dated 2015).
Numbered stars: 1 amine (or outer) side, 2 acyl side, 3 side chain; on linkers, the order of the positions; unused ones are H or OH. Bridge positions count the residues as written; N and C are the ends. Side chains are listed from the residue outwards. Peptide text beside a SMILES is read from it. * marks the point of attachment. C20 diacid = O=C(O)CCCCCCCCCCCCCCCCCCC(=O)*; γGlu = O=C(O)[C@H](CCC(=O)[*:2])N[*:1]

Experiments:
[1] = ASSAY (III) ThT fibrillation assay for physical stability; assay type: physicochemical
Method in brief: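 Formulations with 1 μM ThT, pH adjusted as required, incubated at 37 °C with 960 rpm orbital shaking; fluorescence (ex 444/em 485 nm) read every 20 min. Fibrillation reported as mean ThT fluorescence ± SD of 4–8 replicates at time points; polypeptide concentration measured by reverse-phase HPLC before and after, post-centrifugation.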

[2] = biological target: T1, rat amylin receptor (rat calcitonin receptor + rat RAMP 3) (Rattus norvegicus, UniProt P32214+Q9JJ73); experiment: ASSAY (VI) binding to the rat amylin receptor; conditions: for IC50: binding to rat amylin receptor, read-out: rAmylin-R bind IC50
T1 construct: expressed in transfected cells; host or cells: BHK tk'ts 13 (transient, FuGENE 6), membranes
T1 sequence (P32214 25-479 isoform P32214-2 limits assumed): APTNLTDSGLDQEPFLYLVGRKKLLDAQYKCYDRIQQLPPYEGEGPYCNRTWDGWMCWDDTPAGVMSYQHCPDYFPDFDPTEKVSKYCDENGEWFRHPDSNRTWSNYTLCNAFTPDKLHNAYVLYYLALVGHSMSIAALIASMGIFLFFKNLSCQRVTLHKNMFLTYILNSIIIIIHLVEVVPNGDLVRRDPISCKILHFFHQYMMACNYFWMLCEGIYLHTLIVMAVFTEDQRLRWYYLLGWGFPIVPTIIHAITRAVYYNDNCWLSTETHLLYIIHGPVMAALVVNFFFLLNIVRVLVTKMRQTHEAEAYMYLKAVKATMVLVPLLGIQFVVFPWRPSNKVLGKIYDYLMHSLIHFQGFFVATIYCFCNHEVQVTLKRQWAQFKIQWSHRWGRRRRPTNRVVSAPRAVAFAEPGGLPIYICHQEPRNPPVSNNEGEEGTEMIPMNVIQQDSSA
T1 sequence (Q9JJ73 23-147 partner): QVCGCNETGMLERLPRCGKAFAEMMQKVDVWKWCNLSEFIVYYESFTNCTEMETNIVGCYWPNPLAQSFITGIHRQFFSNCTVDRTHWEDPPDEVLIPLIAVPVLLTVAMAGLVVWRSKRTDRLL
Method in brief: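 This assay measured binding to the rat amylin receptor. BHK tk′ts 13 cells were transiently transfected with the rat calcitonin receptor using FuGENE® 6 (Roche), following the manufacturer's recommendations. About 48 hours after transfection, the cells were harvested and membranes were prepared from them for the binding determination.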

rat calcitonin receptor = biological target: T2, rat calcitonin receptor (Rattus norvegicus, UniProt P32214); experiment: ASSAY (VIII) binding to the rat calcitonin receptor; conditions: Table 7, read-out: rCTR bind IC50
T2 construct: expressed in transfected cells; host or cells: BHK tk'ts 13 (transient, FuGENE 6), membranes
T2 sequence (P32214 25-479 isoform P32214-2 limits assumed): T1 sequence (P32214 25-479 isoform P32214-2 limits assumed)
Method in brief: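 Rat calcitonin receptor is expressed transiently in BHK tk′ts 13 cells cultured in DMEM with 10% FBS. Roughly two days (approximately 48 hours) post-transfection, cells are harvested for membrane preparation.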

[3] = Table 7, rat binding selectivity, rCTR IC50 / rAmylin-R IC50
[4] = Table 7a (preferred compounds), rat binding selectivity, rCTR IC50 / rAmylin-R IC50
[5] = ratio of rCTR bind IC50 to rAmylin-R bind IC50

Structure (SMILES) | ThT pH 4.0 lag time (h) [1] | IC50 ([2]; Table 7) | Ratio rCT/rAmylin binding [2, 3] | Ratio rCT/rAmylin binding [2, 4] | Ratio rCT/rAmylin binding [2, 5] | IC50 (rat calcitonin receptor)
CC[C@H](C)[C@H](NC(=O)[C@H](C)NC(=O)CNC(=O)[C@H](Cc1ccccc1)NC(=O)[C@H](CC(N)=O)NC(=O)[C@@H]1CCCN1C(=O)[C@H](CO)NC(=O)[C@H](CO)NC(=O)[C@H](Cc1c[nH]cn1)NC(=O)[C@H](CCCNC(=N)N)NC(=O)[C@H](CC(C)C)NC(=O)[C@H](Cc1ccccc1)NC(=O)[C@H](CC(N)=O)NC(=O)[C@H](C)NC(=O)[C@H](CC(C)C)NC(=O)[C@H](CCCNC(=N)N)NC(=O)[C@H](CCC(N)=O)NC(=O)[C@@H](NC(=O)[C@H](C)NC(=O)[C@@H]1CSSC[C@H](NC(=O)[C@@H](N)CCCCNC(=O)COCCOCCNC(=O)CCCCCCCCCCCCCCCCCCC(=O)O)C(=O)N[C@@H](CC(N)=O)C(=O)N[C@@H]([C@@H](C)O)C(=O)N[C@@H](C)C(=O)N[C@@H]([C@@H](C)O)C(=O)N1)[C@@H](C)O)C(=O)N1CCC[C@H]1C(=O)N[C@@H](CO)C(=O)N[C@@H](CO)C(=O)N[C@H](C(=O)N[C@@H](CC(N)=O)C(=O)N[C@H](C(=O)NCC(=O)N[C@@H](CO)C(=O)N[C@@H](CC(N)=O)C(=O)N[C@H](C(=O)N[C@@H](Cc1ccc(O)cc1)C(N)=O)[C@@H](C)O)C(C)C)[C@@H](C)O [Example 43] | 4 h | 0.11 nM | 69.1 | 69.1 | 69.1 | 7.6 nM
CC[C@H](C)[C@H](NC(=O)[C@H](C)NC(=O)CNC(=O)[C@H](Cc1ccccc1)NC(=O)[C@H](CC(N)=O)NC(=O)[C@@H]1CCCN1C(=O)[C@H](CO)NC(=O)[C@H](CO)NC(=O)[C@H](Cc1c[nH]cn1)NC(=O)[C@H](CCCNC(=N)N)NC(=O)[C@H](CC(C)C)NC(=O)[C@H](Cc1ccccc1)NC(=O)[C@H](CC(N)=O)NC(=O)[C@H](C)NC(=O)[C@H](CC(C)C)NC(=O)[C@H](CCCNC(=N)N)NC(=O)[C@H](CCC(N)=O)NC(=O)[C@@H](NC(=O)[C@H](C)NC(=O)[C@@H]1CSSC[C@H](NC(=O)[C@H](CCCNC(=N)N)NC(=O)[C@@H](N)CCCCNC(=O)CC[C@H](NC(=O)CCCCCCCCCCCCCCCCCCC(=O)O)C(=O)O)C(=O)N[C@@H](CC(N)=O)C(=O)N[C@@H]([C@@H](C)O)C(=O)N[C@@H](C)C(=O)N[C@@H]([C@@H](C)O)C(=O)N1)[C@@H](C)O)C(=O)N1CCC[C@H]1C(=O)N[C@@H](CO)C(=O)N[C@@H](CO)C(=O)N[C@H](C(=O)N[C@@H](CC(N)=O)C(=O)N[C@H](C(=O)NCC(=O)N[C@@H](CO)C(=O)N[C@@H](Cc1c[nH]cn1)C(=O)N[C@H](C(=O)N[C@@H](Cc1ccc(O)cc1)C(N)=O)[C@@H](C)O)C(C)C)[C@@H](C)O [Example 44] (H-K([γGlu-C20 diacid])RCNTATCATQRLANFLRHSSPNFGAIPSSTNVGSHTY-NH2; disulfide 3-8) | 45 h | 0.369 nM | 53.3 | 53.3 | 53.3 | 19.7 nM
CC[C@H](C)[C@H](NC(=O)[C@H](C)NC(=O)CNC(=O)[C@H](Cc1ccccc1)NC(=O)[C@H](CC(N)=O)NC(=O)[C@@H]1CCCN1C(=O)[C@H](CO)NC(=O)[C@H](CO)NC(=O)[C@H](Cc1c[nH]cn1)NC(=O)[C@H](CCCNC(=N)N)NC(=O)[C@H](CC(C)C)NC(=O)[C@H](Cc1ccccc1)NC(=O)[C@H](CC(N)=O)NC(=O)[C@H](C)NC(=O)[C@H](CC(C)C)NC(=O)[C@H](CCCNC(=N)N)NC(=O)[C@H](CCC(N)=O)NC(=O)[C@@H](NC(=O)[C@H](C)NC(=O)[C@@H]1CSSC[C@H](NC(=O)[C@H](CCCNC(=N)N)NC(=O)CNC(=O)CC[C@H](NC(=O)CCCCCCCCCCCCCCCCCCC(=O)O)C(=O)O)C(=O)N[C@@H](CC(N)=O)C(=O)N[C@@H]([C@@H](C)O)C(=O)N[C@@H](C)C(=O)N[C@@H]([C@@H](C)O)C(=O)N1)[C@@H](C)O)C(=O)N1CCC[C@H]1C(=O)N[C@@H](CO)C(=O)N[C@@H](CO)C(=O)N[C@H](C(=O)N[C@@H](CC(N)=O)C(=O)N[C@H](C(=O)NCC(=O)N[C@@H](CO)C(=O)N[C@@H](CC(N)=O)C(=O)N[C@H](C(=O)N[C@@H](Cc1ccc(O)cc1)C(N)=O)[C@@H](C)O)C(C)C)[C@@H](C)O [Example 46] ({C20 diacid-γGlu}-GRCNTATCATQRLANFLRHSSPNFGAIPSSTNVGSNTY-NH2; disulfide 3-8 (inferred)) | 24 h | 0.33 nM | 141.8 | 141.8 | 141.8 | 46.8 nM
CC[C@H](C)[C@H](NC(=O)[C@H](C)NC(=O)CNC(=O)[C@H](Cc1ccccc1)NC(=O)[C@H](CC(N)=O)NC(=O)[C@@H]1CCCN1C(=O)[C@H](CO)NC(=O)[C@H](CO)NC(=O)[C@H](Cc1c[nH]cn1)NC(=O)[C@H](CCCNC(=N)N)NC(=O)[C@H](CC(C)C)NC(=O)[C@H](Cc1ccccc1)NC(=O)[C@H](CC(N)=O)NC(=O)[C@H](C)NC(=O)[C@H](CC(C)C)NC(=O)[C@H](CCCNC(=N)N)NC(=O)[C@H](CCC(N)=O)NC(=O)[C@@H](NC(=O)[C@H](C)NC(=O)[C@@H]1CSSC[C@H](NC(=O)[C@@H](N)CCCCNC(=O)CC[C@H](NC(=O)CCCCCCCCCCCCCCCCCCC(=O)O)C(=O)O)C(=O)N[C@@H](CC(N)=O)C(=O)N[C@@H]([C@@H](C)O)C(=O)N[C@@H](C)C(=O)N[C@@H]([C@@H](C)O)C(=O)N1)[C@@H](C)O)C(=O)N1CCC[C@H]1C(=O)N[C@@H](CO)C(=O)N[C@@H](CO)C(=O)N[C@H](C(=O)N[C@@H](CC(N)=O)C(=O)N[C@H](C(=O)NCC(=O)N[C@@H](CO)C(=O)N[C@@H](CC(N)=O)C(=O)N[C@H](C(=O)N[C@@H](Cc1ccc(O)cc1)C(N)=O)[C@@H](C)O)C(C)C)[C@@H](C)O [Example 48] | 25 h | 0.558 nM | 201.3 | 201.3 | 201.3 | 112 nM
CC[C@H](C)[C@H](NC(=O)[C@H](C)NC(=O)CNC(=O)[C@H](Cc1ccccc1)NC(=O)[C@H](CC(N)=O)NC(=O)[C@@H]1CCCN1C(=O)[C@H](CO)NC(=O)[C@H](CO)NC(=O)[C@H](Cc1c[nH]cn1)NC(=O)[C@H](CCCNC(=N)N)NC(=O)[C@H](CC(C)C)NC(=O)[C@H](Cc1ccccc1)NC(=O)[C@H](CC(N)=O)NC(=O)[C@H](C)NC(=O)[C@H](CC(C)C)NC(=O)[C@H](CCCNC(=N)N)NC(=O)[C@H](CCC(N)=O)NC(=O)[C@@H](NC(=O)[C@H](C)NC(=O)[C@@H]1CSSC[C@H](NC(=O)[C@@H](N)CCCCNC(=O)COCCOCCNC(=O)CC[C@H](NC(=O)CCCCCCCCCCCCCCCCCCC(=O)O)C(=O)O)C(=O)N[C@@H](CC(N)=O)C(=O)N[C@@H]([C@@H](C)O)C(=O)N[C@@H](C)C(=O)N[C@@H]([C@@H](C)O)C(=O)N1)[C@@H](C)O)C(=O)N1CCC[C@H]1C(=O)N[C@@H](CO)C(=O)N[C@@H](CO)C(=O)N[C@H](C(=O)N1CCC[C@H]1C(=O)N[C@H](C(=O)NCC(=O)N[C@@H](CO)C(=O)N[C@@H](CC(N)=O)C(=O)N[C@H](C(=O)N[C@@H](Cc1ccc(O)cc1)C(N)=O)[C@@H](C)O)C(C)C)[C@@H](C)O [Example 49] | 8 h | 1.08 nM | 47.7 | 47.7 | 47.7 | 51.4 nM
CC[C@H](C)[C@H](NC(=O)[C@H](C)NC(=O)CNC(=O)[C@H](Cc1ccccc1)NC(=O)[C@H](CC(N)=O)NC(=O)[C@@H]1CCCN1C(=O)[C@H](CO)NC(=O)[C@H](CO)NC(=O)[C@H](Cc1c[nH]cn1)NC(=O)[C@H](CCCNC(=N)N)NC(=O)[C@H](CC(C)C)NC(=O)[C@H](Cc1ccccc1)NC(=O)[C@H](CC(N)=O)NC(=O)[C@H](C)NC(=O)[C@H](CC(C)C)NC(=O)[C@H](CCCNC(=N)N)NC(=O)[C@H](CCC(N)=O)NC(=O)[C@@H](NC(=O)[C@H](C)NC(=O)[C@@H]1CSSC[C@H](NC(=O)[C@@H](N)CCCCNC(=O)COCCOCCNC(=O)CC[C@H](NC(=O)CCCCCCCCCCCCCCCCCCC(=O)O)C(=O)O)C(=O)N[C@@H](CC(N)=O)C(=O)N[C@@H]([C@@H](C)O)C(=O)N[C@@H](C)C(=O)N[C@@H]([C@@H](C)O)C(=O)N1)[C@@H](C)O)C(=O)N1CCC[C@H]1C(=O)N[C@@H](CO)C(=O)N[C@@H](CO)C(=O)N[C@H](C(=O)N[C@@H](CC(N)=O)C(=O)N[C@H](C(=O)NCC(=O)N1CCC[C@H]1C(=O)N[C@@H](CC(N)=O)C(=O)N[C@H](C(=O)N[C@@H](Cc1ccc(O)cc1)C(N)=O)[C@@H](C)O)C(C)C)[C@@H](C)O [Example 50] | 2 h | 0.069 nM | 81.7 | 81.7 | 81.7 | 5.63 nM
